Experimental data taken from PMC11350758, “Development of Xanthoangelol-Derived Compounds with Membrane-Disrupting Effects against Gram-Positive Bacteria” (Antibiotics, 2024).
≈ marks a conversion by molar mass, not a printed value. Read-outs that look alike come from different tables or passages of the source.

Key:
Assay type in all cases: cell-based
[1] = tested on: S. aureus ATCC43300; assay: DNA leakage study; settings: control compound
Description: The destruction of bacterial cell membranes usually causes the leakage of macromolecules, including DNA and proteins. To investigate the effect of the compound 9h on the leakage of cytoplasmic contents, we performed DNA and protein leakage assays against S. aureus ATCC43300. The degree of damage to the bacterial cell membrane could be reflected by the concentrations of DNA and protein. The non-membrane-targeted antibiotic ciprofloxacin, membrane-targeted peptide melittin, and PBS were used as controls. […] A similar result were also observed in the leakage of protein with S. aureus (Figure 8C).
Mid-log S. aureus ATCC43300 was collected and resuspended in PBS (1.0 × 10^8 CFU/mL). […] The concentration of the protein was determined according to the method of the BCA assay kit (Thermo Fisher Scientific, Waltham, MA, USA), and the concentration of DNA in the supernatant was tested by a micro-spectrophotometer. All biological experiments were repeated three times.

[2] = tested on: S. aureus ATCC4330; assay: microbe, parasite or virus in culture; settings: control compounds of the ROS assay
Description: Due to the presence of various biological enzymes in plasma, natural AMPs are susceptible to enzymatic degradation upon entering the bloods, leading to a loss of their antimicrobial activity. To evaluate the plasma stability of active compound 9h, we conducted a stability assay by determining their MBC (minimum bactericidal concentration) values in plasma and different blood components. […] The observed initial increase in the MBC value, followed by remaining unchanged, could potentially be attributed to the initial binding of compound 9h with plasma proteins, causing a reduction in its activity. Once this binding became saturated, the bactericidal activity of the compound remained stable, further indicating the good stability of compound 9h in plasma.
MBCs of the compounds were tested. Furthermore, MBCs of compounds in 50% plasma, 50% serum, and 50% blood suspension were tested. The MBC value is defined as the concentration at which the colony count is less than 5 after 18 h of incubation at 37 °C. All biological experiments were repeated three times.

[3] = tested on: Staphylococcus aureus ATCC43300, methicillin-resistant strain; assay: microbe, parasite or virus in culture; settings: for MIC: ATCC 43300 / MRSA, read-out: MIC S. a 43300
Description: (§1) All target derivatives were assessed for their in vitro antibacterial activities using a broth microdilution assay to test their minimum inhibitory concentrations (MICs) against six Gram-positive strains (S. aureus ATCC31007, S. aureus ATCC25923, S. aureus ATCC43300, E. faecalis ATCC29212, B. subtilis ATCC9372, and S. epidermidis ATCC12228) and four Gram-negative strains (A. baumannii ATCC19606, K. pneumonia ATCC10031, E. coli ATCC25922, and P. aeruginosa ATCC27853). These compounds were also evaluated for their hemolytic activities and membrane selectivity by determining their HC50 (the concentration required to lyse 50% of red blood cells) and SI (HC50/MICs) values, respectively, and vancomycin was used as the positive drug.
(§2) MICs of the derivatives were determined by the micro broth dilution method according to the American Clinical and Laboratory Standards Institute (CLSI) standards. Briefly, 2-fold serial dilutions of target compounds were prepared in 96-well plates containing TSB broth. An equal volume of bacterial suspension (10^6 CFU/mL) was then pipetted into each well, and the mixture was incubated at 37 °C for 24 h. […] All biological experiments were repeated three times.

[4] = tested on: S. aureus ATCC43300; assay: ROS assay (DCFH-DA); settings: control compounds
Description: It is known that the disruption of bacterial cell membranes often causes the production of ROS in bacterial cells. The fluorescent probe DCFH-DA was used to monitor the level of intracellular ROS produced by S. aureus ATCC43300. DCFH-DA is initially non-fluorescent; however, it undergoes hydrolysis to DCFH upon entry into the cell. Subsequently, DCFH is converted to the fluorescent compound DCF when ROS are produced in the cells. […] The fluorescence intensity of 9h was about 8-fold higher than the PBS-treated group when the concentration of 9h increased 16 μg/mL.
Mid-log S. aureus ATCC43300 was collected and resuspended in PBS. Bacteria suspension (1.0 × 10^8 CFU/mL) was placed into a 96-well plate, and an equal volume of DCF-DA (10.0 μM) was mixed and incubated at 37 °C for 30 min. After incubation, the suspension was centrifuged (3500 rpm, 4 min), and the supernatant was removed and resuspended in PBS. […] The fluorescence intensity of each well was recorded by a microplate reader (Ex = 488 nm and Em = 530 nm). All biological experiments were repeated three times.

[5] = tested on: S. aureus ATCC43300; assay: Resistance development assay (serial passage); settings: at the 19th passage
Description: The rapid increase in bacterial resistance to antibiotics is a major challenge in clinical treatment, and in order to assess the drug resistance development for compound 9h, we performed a drug resistance assay against S. aureus ATCC43300. Norfloxacin was selected as the positive control. The S. aureus cells were incubated with sub-MIC (1/2 MIC) concentration of compound 9h and were serially passaged for a duration of 20 days.
Resistance was defined as a more than 4-fold increase in the tested compound in MIC when compared to the beginning value. Briefly, S. aureus ATCC43300 was cultured (37 °C, 200 rpm) in MHB broth for 5 h and diluted to 1 × 10^6 CFU/mL. Then, the bacteria were cultured with compound 9h at a sub-MIC concentration (1/2 MIC) for 18 h. The MICs were determined according to this method for consecutive 20 days. All biological experiments were repeated three times.

[6] = tested on: Enterococcus faecium ATCC51559, vancomycin-resistant strain; assay: MIC, broth microdilution; settings: Enterococcus faecium, ATCC51559, read-out: MIC E. f. 51559
Description: as §2

[7] = tested on: Enterococcus faecalis ATCC51299, vancomycin-resistant strain; assay: MIC, broth microdilution; settings: Enterococcus faecalis, ATCC51299, read-out: MIC E. f. 51299
Description: as §2

[8] = tested on: Pseudomonas aeruginosa ATCC27853; assay: MIC, broth microdilution; settings: Pseudomonas aeruginosa, ATCC27853, read-out: MIC P. a. 27853
Description: as §1, §2

[9] = tested on: Acinetobacter baumannii ATCC19606; assay: MIC, broth microdilution; settings: Acinetobacter baumannii, ATCC19606, read-out: MIC A. b. 19606
Description: as §1, §2

[10] = tested on: Staphylococcus aureus ATCC25923, erythromycin-susceptible strain; assay: MIC, broth microdilution; settings: Staphylococcus aureus, ATCC25923, read-out: MIC S. a. 25923
Description: as §1, §2

[11] = tested on: Staphylococcus aureus ATCC31007, penicillin-resistant strain; assay: MIC, broth microdilution; settings: Staphylococcus aureus, ATCC31007, read-out: MIC S. a. 31007
Description: as §1, §2

[12] = tested on: Enterococcus faecalis ATCC29212, vancomycin-susceptible strain; assay: MIC, broth microdilution; settings: Enterococcus faecalis, ATCC29212, read-out: MIC E. f. 29212
Description: as §1, §2

[13] = tested on: Bacillus subtilis ATCC9372, penicillin-susceptible strain; assay: MIC, broth microdilution; settings: Bacillus subtilis, ATCC9372, read-out: MIC B. s. 9372
Description: as §1, §2

[14] = tested on: Escherichia coli ATCC25922, penicillin-susceptible strain; assay: MIC, broth microdilution; settings: Escherichia coli, ATCC25922, read-out: MIC E. c. 25922
Description: as §1, §2

[15] = tested on: Staphylococcus epidermidis ATCC12228, erythromycin-susceptible strain; assay: MIC, broth microdilution; settings: Staphylococcus epidermidis, ATCC12228, read-out: MIC S. e. 12228
Description: as §1, §2

[16] = tested on: Klebsiella pneumonia ATCC10031; assay: MIC, broth microdilution; settings: Klebsiella pneumoniae, ATCC10031, read-out: MIC K. p. 10031
Description: as §1, §2

[17] = Staphylococcus aureus ATCC43300 (MRSA)

In the case of O=C(O)c1cn(C2CC2)c2cc(N3CCNCC3)c(F)cc2c1=O [ciprofloxacin, reference compound], the “effect on DNA concentration” value [1] is reported as “changed little”, the MBC ([2]; Staphylococcus aureus, ATCC 4330 / ATCC 43300, against S. aureus ATCC43300, read-out: MBC) is reported as 2 µg/mL (≈ 6.04 µM) and the MIC [3, 17] is reported as 0.25 µg/mL (≈ 0.754 µM). For the same compound, the “effect on ROS fluorescence intensity” value [4] was “little change in fluorescence intensity”.
For CCn1cc(C(=O)O)c(=O)c2cc(F)c(N3CCNCC3)cc21 [norfloxacin, reference compound], the “fold increase in MIC” value [5] was 512 fold.
For CN[C@H](CC(C)C)C(=O)N[C@H]1C(=O)N[C@@H](CC(N)=O)C(=O)N[C@H]2C(=O)N[C@H]3C(=O)N[C@H](C(=O)N[C@H](C(=O)O)c4cc(O)cc(O)c4-c4cc3ccc4O)[C@H](O)c3ccc(c(Cl)c3)Oc3cc2cc(c3O[C@@H]2O[C@H](CO)[C@@H](O)[C@H](O)[C@H]2O[C@H]2C[C@](C)(N)[C@H](O)[C@H](C)O2)Oc2ccc(cc2Cl)[C@H]1O [Van, vancomycin, reference compound], the MIC ([3]; Staphylococcus aureus) was 2 µg/mL (≈ 1.38 µM), the MIC [6] was 128 µg/mL (≈ 88.3 µM) and the MIC [7] was 128 µg/mL (≈ 88.3 µM). For the same compound, the MIC [8] was > 128 µg/mL, the MIC [9] was 16 µg/mL (≈ 11 µM) and the MIC [10] was 1 µg/mL (≈ 0.69 µM). It also gave an MIC [11] of 1 µg/mL (≈ 0.69 µM), an MIC [12] of 2 µg/mL (≈ 1.38 µM) and an MIC [13] of 0.5 µg/mL (≈ 0.345 µM). It also gave an MIC [14] of 128 µg/mL (≈ 88.3 µM), an MIC [15] of 2 µg/mL (≈ 1.38 µM) and an MIC [16] of 128 µg/mL (≈ 88.3 µM).
With CC[C@H](C)[C@H](NC(=O)CN)C(=O)NCC(=O)N[C@@H](C)C(=O)N[C@H](C(=O)N[C@@H](CC(C)C)C(=O)N[C@@H](CCCCN)C(=O)N[C@H](C(=O)N[C@@H](CC(C)C)C(=O)N[C@H](C(=O)N[C@H](C(=O)NCC(=O)N[C@@H](CC(C)C)C(=O)N1CCC[C@H]1C(=O)N[C@@H](C)C(=O)N[C@@H](CC(C)C)C(=O)N[C@H](C(=O)N[C@@H](CO)C(=O)N[C@@H](Cc1c[nH]c2ccccc12)C(=O)N[C@H](C(=O)N[C@@H](CCCCN)C(=O)N[C@@H](CCCNC(=N)N)C(=O)N[C@@H](CCCCN)C(=O)N[C@@H](CCCNC(=N)N)C(=O)N[C@@H](CCC(N)=O)C(=O)N[C@@H](CCC(N)=O)C(N)=O)[C@@H](C)CC)[C@@H](C)CC)[C@@H](C)O)[C@@H](C)O)C(C)C)C(C)C [melittin, reference compound] the MBC ([2]; against S. aureus ATCC43300) was 32 µg/mL (≈ 11.2 µM), the “MIC S. a 43300” value [3, 17] was 8 µg/mL (≈ 2.81 µM) and the “effect on ROS fluorescence intensity” value [4] was “dose-dependently increase the fluorescence intensity”.
